Source: ChEMBL document CHEMBL1201862, “PubChem BioAssay data set” (2004)
Active and inactive are the calls of the source.

Assays:
[1] = M. tuberculosis H37Rv growth inhibitors, H37Rv strain (AID 1626); type: functional
[2] = A Cell Based Secondary Assay To Explore Cytotoxicity of Compounds that Sensitize Mycobacterium Tuberculosis to Beta-Lactam Antibiotics.; type: functional
Cytochrome P450 2D6 = Cytochrome P450 2D6 (Homo sapiens, UniProt P10635); assay: qHTS Assay for Inhibitors and Substrates of Cytochrome P450 2D6. [Related pubchem assays: 410 ]; type: ADME; settings: read-out: Potency
Cytochrome P450 3A4 = Cytochrome P450 3A4 (Homo sapiens, UniProt P08684); settings: Potency;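 further: confirmatory qHTS run detecting inhibitors and substrates of CYP3A4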
[3] = target: Neurotensin receptor type 1 (Homo sapiens, UniProt P30989); type: functional;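 further: Image-based confirmatory dose-response assay measuring agonist activity at NTR1; NTR1-expressing U2OS osteosarcoma cells imaged for beta-arrestin GFP spot formation; agonist potency where compounds increase beta-arrestin recruitment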
[4] = growth suppression of beta-catenin-knockout colon cells, dose response, cell-based, HCT116, human colon tumor (AID 1045); type: functional;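 further: HCT116 colon tumor cells with beta catenin knocked out; cells exposed to compound for 60 hours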
[5] = HEK293 cell cytotoxicity, dose response, cytotoxicity control, plate reader, cherry-picked samples (AID 743446); type: functional, cell-based
[6] = growth suppression of PTEN-null colon cells, dose response, cell-based, HCT116 PTEN knockout (AID 1047); type: functional;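 further: HCT116 colon tumor cells with PTEN knocked out; cells exposed to compound for 60 hours before readout; potency for loss of cell viability measured by luminescence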
[7] = LGR2 antagonists, dose response, cell-based, HEK293, CRE-luciferase reporter, cherry pick, set 2 (AID 743343); type: functional;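 further: transfected cells were stimulated with diluted bursicon conditioned medium after compound addition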
[8] = HepG2 cell cytotoxicity, dose response, cytotoxicity control, plate reader, cherry-pick, antagonist series (AID 743416); type: functional, cell-based
[9] = A549 cell cytotoxicity, dose response, cytotoxicity control, plate reader, cherry-pick, antagonist series (AID 743412); type: functional, cell-based
[10] = MC4R antagonists, dose response, counter-screen for LGR2 antagonist project, cell-based, plate reader, cherry pick (AID 743444); type: functional;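 further: transfected HEK 293 cells stimulated with alpha-MSH peptide; potency of inhibitors of the alpha-MSH evoked signal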
[11] = target: T1, Neuropeptide Y receptor type 1 (Homo sapiens, UniProt P25929); assay: NPY-Y1 receptor antagonist potency, dose response, cell-based (AID 1277); type: functional
T1 sequence (P25929 whole entry): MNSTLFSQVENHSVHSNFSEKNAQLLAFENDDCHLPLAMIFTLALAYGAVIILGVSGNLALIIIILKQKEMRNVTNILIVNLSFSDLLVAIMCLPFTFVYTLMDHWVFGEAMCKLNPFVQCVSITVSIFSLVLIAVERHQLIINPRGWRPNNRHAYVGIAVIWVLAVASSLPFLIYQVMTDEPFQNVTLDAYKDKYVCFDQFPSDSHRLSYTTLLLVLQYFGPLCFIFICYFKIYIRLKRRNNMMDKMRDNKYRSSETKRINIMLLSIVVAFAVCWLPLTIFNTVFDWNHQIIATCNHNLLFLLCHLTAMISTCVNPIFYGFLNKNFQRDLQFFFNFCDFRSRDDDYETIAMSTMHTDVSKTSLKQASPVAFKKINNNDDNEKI

[12] = target: T2, Neuropeptide Y receptor type 2 (Homo sapiens, UniProt P49146); assay: NPY-Y2 antagonist potency, selectivity check, dose response, counter-screen for NPY-Y1 antagonist project, cell-based (AID 1278); type: functional
T2 sequence (P49146 whole entry): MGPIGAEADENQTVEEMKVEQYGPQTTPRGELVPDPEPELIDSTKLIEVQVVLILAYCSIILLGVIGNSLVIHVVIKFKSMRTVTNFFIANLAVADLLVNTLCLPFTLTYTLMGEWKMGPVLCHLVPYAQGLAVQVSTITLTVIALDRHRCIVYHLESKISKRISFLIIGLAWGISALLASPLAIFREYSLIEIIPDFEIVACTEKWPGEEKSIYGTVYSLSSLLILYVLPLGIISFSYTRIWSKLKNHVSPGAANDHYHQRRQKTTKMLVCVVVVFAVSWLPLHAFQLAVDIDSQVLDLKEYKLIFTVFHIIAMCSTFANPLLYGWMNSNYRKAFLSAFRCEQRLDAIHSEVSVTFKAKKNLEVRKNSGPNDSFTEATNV

[13] = target: Induced myeloid leukemia cell differentiation protein Mcl-1 (Homo sapiens, UniProt Q07820); assay: MCL1-BIM BH3 interaction inhibitors, dose response, biochemical, fluorescence polarization, BIM-BH3 peptide, 1536-well (AID 2217)
Bcl-2-like protein 1 = Bcl-2-like protein 1 (Homo sapiens, UniProt Q07817); assay: BCL-XL inhibitors, dose response, selectivity assay for MCL1 inhibitor project, biochemical, fluorescence polarization, 1536-well (AID 2218)
[14] = target: T3, Histone-lysine N-methyltransferase NSD2 (Homo sapiens, UniProt O96028); type: biochemical
T3 sequence (O96028 whole entry): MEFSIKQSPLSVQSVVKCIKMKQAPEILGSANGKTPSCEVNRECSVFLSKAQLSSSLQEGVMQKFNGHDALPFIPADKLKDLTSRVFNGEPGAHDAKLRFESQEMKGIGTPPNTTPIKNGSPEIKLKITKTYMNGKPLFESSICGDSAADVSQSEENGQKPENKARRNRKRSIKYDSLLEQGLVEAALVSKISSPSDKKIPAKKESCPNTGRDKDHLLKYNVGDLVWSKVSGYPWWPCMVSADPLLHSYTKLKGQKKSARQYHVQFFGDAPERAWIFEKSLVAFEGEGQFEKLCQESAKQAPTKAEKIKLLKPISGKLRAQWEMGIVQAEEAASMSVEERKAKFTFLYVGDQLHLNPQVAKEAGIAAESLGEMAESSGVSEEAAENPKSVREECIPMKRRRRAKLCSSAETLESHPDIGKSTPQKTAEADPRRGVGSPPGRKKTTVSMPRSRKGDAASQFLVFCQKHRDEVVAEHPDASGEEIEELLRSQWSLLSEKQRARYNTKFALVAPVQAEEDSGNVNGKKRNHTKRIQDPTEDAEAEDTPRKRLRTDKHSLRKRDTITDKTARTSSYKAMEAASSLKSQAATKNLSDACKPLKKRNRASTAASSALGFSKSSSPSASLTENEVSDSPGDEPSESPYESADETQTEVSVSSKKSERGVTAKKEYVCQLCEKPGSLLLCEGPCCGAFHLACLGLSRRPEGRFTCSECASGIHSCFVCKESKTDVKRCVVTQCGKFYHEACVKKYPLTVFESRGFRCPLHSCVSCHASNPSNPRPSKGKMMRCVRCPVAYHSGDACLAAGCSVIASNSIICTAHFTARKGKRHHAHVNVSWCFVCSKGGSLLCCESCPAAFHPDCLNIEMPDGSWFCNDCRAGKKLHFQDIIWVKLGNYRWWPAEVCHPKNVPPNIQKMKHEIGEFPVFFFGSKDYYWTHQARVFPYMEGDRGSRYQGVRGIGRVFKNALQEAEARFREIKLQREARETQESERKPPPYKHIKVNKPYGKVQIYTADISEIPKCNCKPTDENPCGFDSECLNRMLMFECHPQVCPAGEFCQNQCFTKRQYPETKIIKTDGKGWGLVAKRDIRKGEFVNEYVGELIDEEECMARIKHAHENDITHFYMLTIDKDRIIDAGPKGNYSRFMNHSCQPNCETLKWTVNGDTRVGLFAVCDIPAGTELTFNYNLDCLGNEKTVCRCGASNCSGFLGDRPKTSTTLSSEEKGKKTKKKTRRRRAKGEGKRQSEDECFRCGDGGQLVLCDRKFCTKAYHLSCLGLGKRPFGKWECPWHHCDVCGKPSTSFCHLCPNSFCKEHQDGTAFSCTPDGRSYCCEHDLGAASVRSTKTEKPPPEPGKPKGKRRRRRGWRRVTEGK

[15] = target: NAD-dependent protein deacylase sirtuin-5, mitochondrial (Homo sapiens, UniProt Q9NXA8); assay: SIRT5 desuccinylase inhibitors, dose response, biochemical, fluorescence imaging, cherry-pick, set 5 (AID 720591);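 further: desuccinylation of succinyl peptide AMC substrate read as fluorescence after trypsin release; potency of inhibitors that lower fluorescence and may act on trypsin instead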
[16] = target: Intestinal-type alkaline phosphatase (Homo sapiens, UniProt P09923); assay: inhibition of human intestinal alkaline phosphatase – biochemical, dose response (AID 488876); type: functional
[17] = target: T4, Alkaline phosphatase, tissue-nonspecific isozyme (Homo sapiens, UniProt P05186); assay: TNAP enzyme inhibition by screening hits, dose response, selectivity assay for mouse IAP inhibitor project, biochemical, human TNAP, uHTS hits (AID 488906); type: functional
T4 sequence (P05186 whole entry): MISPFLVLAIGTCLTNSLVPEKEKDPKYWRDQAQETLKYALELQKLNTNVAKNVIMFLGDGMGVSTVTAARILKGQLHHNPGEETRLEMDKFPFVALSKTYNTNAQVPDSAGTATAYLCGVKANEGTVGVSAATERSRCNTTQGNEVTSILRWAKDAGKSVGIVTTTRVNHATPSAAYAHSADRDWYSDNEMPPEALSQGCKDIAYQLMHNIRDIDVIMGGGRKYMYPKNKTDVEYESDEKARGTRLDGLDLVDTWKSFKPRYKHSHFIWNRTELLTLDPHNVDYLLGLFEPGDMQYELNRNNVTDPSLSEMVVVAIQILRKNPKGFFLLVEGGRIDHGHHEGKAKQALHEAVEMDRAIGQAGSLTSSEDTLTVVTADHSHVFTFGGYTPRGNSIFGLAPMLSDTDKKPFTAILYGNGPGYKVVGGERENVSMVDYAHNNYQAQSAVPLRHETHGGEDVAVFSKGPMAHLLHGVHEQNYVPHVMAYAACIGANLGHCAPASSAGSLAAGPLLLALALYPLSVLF

[18] = target: Intestinal-type alkaline phosphatase (Mus musculus, UniProt P24822); assay: PubChem AID 488785; type: functional
Intestinal-type alkaline phosphatase (Mus musculus, UniProt P24822), sequence (P24822 whole entry): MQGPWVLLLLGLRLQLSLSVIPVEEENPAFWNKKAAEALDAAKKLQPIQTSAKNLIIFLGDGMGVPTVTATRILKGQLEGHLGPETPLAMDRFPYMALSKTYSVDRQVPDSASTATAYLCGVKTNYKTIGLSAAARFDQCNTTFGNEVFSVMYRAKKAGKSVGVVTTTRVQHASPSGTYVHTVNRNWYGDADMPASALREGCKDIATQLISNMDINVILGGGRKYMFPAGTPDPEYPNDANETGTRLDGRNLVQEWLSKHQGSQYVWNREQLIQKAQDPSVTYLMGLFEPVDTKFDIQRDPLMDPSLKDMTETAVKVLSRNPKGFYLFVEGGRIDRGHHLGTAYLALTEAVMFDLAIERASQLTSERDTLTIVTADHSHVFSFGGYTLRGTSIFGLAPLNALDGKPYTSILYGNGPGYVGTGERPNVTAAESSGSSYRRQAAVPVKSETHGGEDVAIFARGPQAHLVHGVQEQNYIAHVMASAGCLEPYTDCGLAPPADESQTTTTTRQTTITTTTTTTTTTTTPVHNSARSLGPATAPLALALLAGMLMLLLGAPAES

Intestinal-type alkaline phosphatase (Homo sapiens, UniProt P09923), sequence (P09923 whole entry): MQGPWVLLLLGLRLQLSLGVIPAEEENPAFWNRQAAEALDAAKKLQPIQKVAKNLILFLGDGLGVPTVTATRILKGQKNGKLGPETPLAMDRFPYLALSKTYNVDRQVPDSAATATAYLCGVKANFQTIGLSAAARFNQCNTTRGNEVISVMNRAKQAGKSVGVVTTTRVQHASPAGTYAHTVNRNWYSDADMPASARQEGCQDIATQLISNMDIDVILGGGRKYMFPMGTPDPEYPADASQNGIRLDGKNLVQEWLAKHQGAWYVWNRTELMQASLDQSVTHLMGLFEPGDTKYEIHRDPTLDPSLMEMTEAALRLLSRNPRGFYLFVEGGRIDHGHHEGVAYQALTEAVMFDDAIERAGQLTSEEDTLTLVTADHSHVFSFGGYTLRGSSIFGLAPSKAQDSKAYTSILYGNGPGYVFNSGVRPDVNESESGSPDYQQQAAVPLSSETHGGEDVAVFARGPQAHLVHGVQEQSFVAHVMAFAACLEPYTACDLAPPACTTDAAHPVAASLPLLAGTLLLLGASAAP
Cytochrome P450 3A4, sequence (P08684 whole entry): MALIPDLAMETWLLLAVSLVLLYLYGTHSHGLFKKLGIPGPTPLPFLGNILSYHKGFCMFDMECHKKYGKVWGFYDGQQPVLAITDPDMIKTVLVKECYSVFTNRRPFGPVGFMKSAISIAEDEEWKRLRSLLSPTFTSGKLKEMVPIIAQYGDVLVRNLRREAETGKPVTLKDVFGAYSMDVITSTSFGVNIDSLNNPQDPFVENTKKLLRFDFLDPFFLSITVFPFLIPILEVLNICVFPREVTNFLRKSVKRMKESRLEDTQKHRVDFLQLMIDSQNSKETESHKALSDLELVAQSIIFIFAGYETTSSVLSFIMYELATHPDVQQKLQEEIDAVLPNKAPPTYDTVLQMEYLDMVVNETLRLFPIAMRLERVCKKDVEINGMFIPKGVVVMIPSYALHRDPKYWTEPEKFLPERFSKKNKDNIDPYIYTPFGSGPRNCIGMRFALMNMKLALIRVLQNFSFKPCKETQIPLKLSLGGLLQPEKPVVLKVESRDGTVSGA
Induced myeloid leukemia cell differentiation protein Mcl-1, sequence (Q07820 whole entry): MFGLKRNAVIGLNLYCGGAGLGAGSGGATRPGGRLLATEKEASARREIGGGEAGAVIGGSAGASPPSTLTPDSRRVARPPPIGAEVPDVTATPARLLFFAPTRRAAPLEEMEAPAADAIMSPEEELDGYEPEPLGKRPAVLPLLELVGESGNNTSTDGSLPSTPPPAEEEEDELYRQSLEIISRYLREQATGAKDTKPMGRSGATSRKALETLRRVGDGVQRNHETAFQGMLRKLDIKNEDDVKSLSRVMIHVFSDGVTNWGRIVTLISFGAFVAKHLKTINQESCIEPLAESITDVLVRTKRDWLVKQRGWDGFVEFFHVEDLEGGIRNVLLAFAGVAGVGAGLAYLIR
Cytochrome P450 2D6, sequence (P10635 whole entry): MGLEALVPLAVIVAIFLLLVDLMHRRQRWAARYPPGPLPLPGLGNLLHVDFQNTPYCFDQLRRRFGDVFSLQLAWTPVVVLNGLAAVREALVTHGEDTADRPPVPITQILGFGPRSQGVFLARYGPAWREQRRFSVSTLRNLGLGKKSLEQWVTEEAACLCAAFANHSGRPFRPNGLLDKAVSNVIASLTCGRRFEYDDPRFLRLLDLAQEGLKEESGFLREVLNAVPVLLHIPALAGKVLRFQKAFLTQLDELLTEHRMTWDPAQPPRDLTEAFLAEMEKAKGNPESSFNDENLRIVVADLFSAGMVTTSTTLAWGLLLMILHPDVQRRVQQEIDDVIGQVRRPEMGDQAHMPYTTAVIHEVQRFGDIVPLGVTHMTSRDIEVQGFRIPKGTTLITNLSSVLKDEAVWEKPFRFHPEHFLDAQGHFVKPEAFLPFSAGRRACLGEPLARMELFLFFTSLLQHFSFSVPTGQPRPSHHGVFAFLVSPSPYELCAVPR
NAD-dependent protein deacylase sirtuin-5, mitochondrial, sequence (Q9NXA8 whole entry): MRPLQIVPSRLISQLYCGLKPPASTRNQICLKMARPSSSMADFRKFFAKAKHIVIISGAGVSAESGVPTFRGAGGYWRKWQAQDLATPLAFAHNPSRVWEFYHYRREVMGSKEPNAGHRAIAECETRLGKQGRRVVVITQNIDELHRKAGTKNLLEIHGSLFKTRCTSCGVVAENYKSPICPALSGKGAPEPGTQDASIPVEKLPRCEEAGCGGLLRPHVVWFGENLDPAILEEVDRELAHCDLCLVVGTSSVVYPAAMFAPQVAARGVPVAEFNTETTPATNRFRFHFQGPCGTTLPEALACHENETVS
Bcl-2-like protein 1, sequence (Q07817 whole entry): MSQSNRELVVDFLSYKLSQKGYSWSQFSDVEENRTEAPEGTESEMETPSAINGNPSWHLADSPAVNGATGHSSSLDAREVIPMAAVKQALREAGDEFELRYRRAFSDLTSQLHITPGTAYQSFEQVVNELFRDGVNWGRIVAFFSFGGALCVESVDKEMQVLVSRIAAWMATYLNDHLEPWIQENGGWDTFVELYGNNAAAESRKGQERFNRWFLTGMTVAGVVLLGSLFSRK
Neurotensin receptor type 1, sequence (P30989 whole entry): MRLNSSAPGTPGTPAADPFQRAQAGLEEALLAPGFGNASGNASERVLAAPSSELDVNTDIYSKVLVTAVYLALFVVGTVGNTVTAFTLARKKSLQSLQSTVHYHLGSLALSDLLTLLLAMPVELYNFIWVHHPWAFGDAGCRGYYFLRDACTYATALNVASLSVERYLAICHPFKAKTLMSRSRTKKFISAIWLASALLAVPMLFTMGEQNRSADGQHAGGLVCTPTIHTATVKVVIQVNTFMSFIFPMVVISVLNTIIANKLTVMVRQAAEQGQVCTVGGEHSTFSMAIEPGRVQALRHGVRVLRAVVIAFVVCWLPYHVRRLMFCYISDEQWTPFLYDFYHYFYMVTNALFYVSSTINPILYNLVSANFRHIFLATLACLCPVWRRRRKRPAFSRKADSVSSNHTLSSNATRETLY

## Sc1ncnc2scc(-c3ccc(Br)cc3)c12
[1]
  IC50: > 100 µM (active)
[2]
  CC50: 25.9 µM (active)

## CC(C)CN1CCc2nc(-c3ccccc3)c3c(c2C1)COC(C)C3 (configuration not stated)
Cytochrome P450 2D6
  AC50: 3.16 µM (inconclusive)
Cytochrome P450 3A4
  AC50: 3.16 µM (inconclusive)

## CC(C)C(=O)N1CCN(c2ccc(NC(=O)c3ccc4c(c3)OCCO4)cc2Cl)CC1
[1]
  IC50: > 100 µM (active)
[3]
  EC50: 18.5 µM (active)
[4]
  EC50: 9.2 µM (active)
[5]
  AC50: 10.7 µM (active)
[6]
  EC50: 9.21 µM (active)
[7]
  AC50: 16 µM (active)
[8]
  AC50: 17.7 µM (active)
[9]
  AC50: 22.6 µM (active)
[10]
  AC50: 19.1 µM (active)

## CCC(C)(C(=O)NC1CCCC1)N(Cc1ccco1)C(=O)Cc1cccs1 (configuration not stated)
[11]
  IC50: > 35 µM (not active)
[12]
  IC50: > 35 µM (not active)

## N#Cc1c(SCC(=O)Nc2nncs2)sc2c(O)cc(=O)[nH]c12
[13]
  IC50: 25.3 µM (not active)
Bcl-2-like protein 1
  IC50: 96.5 µM (not active)
[14]
  AC50: 6.29 µM (active)
[15]
  AC50: 4.58 µM (active)
[16]
  IC50: > 100 µM (inactive)
[17]
  IC50: > 100 µM (inactive)
[18]
  IC50: 2.3 µM (active)
